Blank lines part the entries; values can stand above or below the molecule they belong to.
Experiments:
MCF-7 cells = assay: MTT assay, antiproliferative activity in MCF-7; type: cell-based, human; conditions: MCF-7, 10μM of each analogue for three days
MDA-MB-231 cells = assay: MTT assay, antiproliferative activity in MDA-MB-231; type: cell-based, human; conditions: for in vitro anticancer activity at single concentration: MDA-MB-231, 10μM of each analogue for three days
MCF10A cells = assay: MTT assay with immortalized normal breast cells MCF10A; type: cell-based, human; conditions: for killing of normal MCF10A cells: compared with cancerous MCF-7 and MDA-MB-231 cells
eEF1A = type: binding, human; conditions: biotinylated compound, MDA-MB-231 cell lysate, neutravidin beads, western blot
[1] = test system: eukaryotic elongation factor 1A1 (eEF1A1); conditions: four rounds of biopanning, 12 phage clones per compound sequenced
eEF1A2 = target: T1, eEF1A2 (Homo sapiens, UniProt Q05639); type: binding; conditions: biotinylated compounds on SA chip; apparent KDs unreliable
T1 sequence (Q05639 1-463): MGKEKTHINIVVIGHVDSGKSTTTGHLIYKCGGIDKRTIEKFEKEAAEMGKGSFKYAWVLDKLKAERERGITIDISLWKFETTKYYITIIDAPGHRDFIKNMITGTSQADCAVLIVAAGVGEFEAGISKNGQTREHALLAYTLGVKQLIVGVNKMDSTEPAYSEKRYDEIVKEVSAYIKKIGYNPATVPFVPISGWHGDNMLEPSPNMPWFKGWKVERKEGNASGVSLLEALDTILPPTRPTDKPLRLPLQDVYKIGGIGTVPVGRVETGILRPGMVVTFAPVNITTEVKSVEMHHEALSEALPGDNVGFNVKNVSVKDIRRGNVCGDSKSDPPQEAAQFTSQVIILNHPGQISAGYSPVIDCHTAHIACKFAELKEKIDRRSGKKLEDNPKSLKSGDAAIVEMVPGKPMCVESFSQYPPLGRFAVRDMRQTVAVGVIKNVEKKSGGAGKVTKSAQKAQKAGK

[2] = test system: Akt (Ser473 and Thr308 phosphorylation); assay: Western blot analysis of Akt phosphorylation in MDA-MB-231 cells; type: cell-based, human; conditions: MDA-MB-231, 2μM for 6 hours and 12 hours
protein translation = assay: 35S-Methionine labeled protein translation assay; type: cell-based; conditions: 2, 4 and 8μM for 8 hours

Compound: CC(C)CNc1nc2cc3c(=O)cc(-c4ccc(C(=O)N[C@@H](Cc5ccccc5)C(N)=O)cc4)oc3cc2n1Cc1ccccc1 [Compound 24]
in vitro anticancer activity at single concentration (MCF-7 cells): among the most active compounds
in vitro anticancer activity at single concentration (MDA-MB-231 cells): among the most active compounds
killing of normal MCF10A cells (MCF10A cells): killed normal MCF10A cell in a similar manner as cancerous MCF-7 and MDA-MB-213 cells
binding of eEF1A in pull down (eEF1A): eEF1A did indeed bind
binding protein recovered from phage clones [1]: Eukaryotic elongation factor 1A 1 (eEF1A1) was also recovered

decrease in IC50 compared to 10 (MDA-MB-231 cells; MDA-MB-231): 5 fold
binding of eEF1A2 (SPR) (eEF1A2): selectively bind to eEF1A2
Compound: CC(C)C[C@H](NC(=O)c1ccc(-c2cc(=O)c3cc([N+](=O)[O-])c(N[C@H](C)C4CCCCC4)cc3o2)cc1)C(N)=O [Compound 39]
normal MCF10A cells killed (MCF10A cells; at 50μM): about 65%
phosphorylation of serine 473 and threonine 308 in Akt [2]: able to suppress phosphorylation
35S-methionine incorporation into cellular proteins (protein translation): decreased ^35S-methionine incorporation into cellular proteins in a dose-dependent manner

Compound: COc1ccc(Nc2nc3cc4c(=O)cc(-c5ccc(C(=O)N[C@@H](CC(C)C)C(N)=O)cc5)oc4cc3n2[C@H](C)C2CCCCC2)cc1 [Compound 10]
in vitro anticancer activity at single concentration (MCF-7 cells): among the most active compounds
in vitro anticancer activity at single concentration (MDA-MB-231 cells): among the most active compounds
killing of normal MCF10A cells (MCF10A cells): killed normal MCF10A cell in a similar manner as cancerous MCF-7 and MDA-MB-213 cells
binding of eEF1A in pull down (eEF1A): eEF1A did indeed bind
binding protein recovered from phage clones [1]: two clones encoded eukaryotic elongation factor 1A1 (eEF1A1)

From article PMC3169196 (Journal of medicinal chemistry, 2011)
